The target of data set [1] is T1, human type 2 5α-reductase (Homo sapiens, UniProt P31213).
T1 construct: host or cells: native human prostate tissue or recombinant from a baculovirus expression system; considered interchangeable
T1 sequence (P31213 1-254): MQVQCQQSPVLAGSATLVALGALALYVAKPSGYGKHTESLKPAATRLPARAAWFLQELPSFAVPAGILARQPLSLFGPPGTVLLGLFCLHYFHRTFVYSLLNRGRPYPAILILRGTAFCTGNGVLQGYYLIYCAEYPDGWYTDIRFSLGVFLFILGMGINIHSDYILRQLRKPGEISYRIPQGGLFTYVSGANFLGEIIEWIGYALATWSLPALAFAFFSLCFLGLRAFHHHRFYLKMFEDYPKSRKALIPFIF
Briefly: Structural requirements / inhibition constants and IC50 on type 2 enzyme (Examples 9 and 11). The data set is classed as biochemical. Here is the method:
(§1) The human isozymes were employed exclusively in this research. The native isozymes were from scalp (type 1 ) or prostate (type 2) tissues, and the recombinant forms were produced by a baculovirus expression system. Except where specified, all data refer to the prostate (type 2) isozyme, the primary target of finasteride. All of the experiments described in this application were also conducted with the recombinant type 1 isozyme, either in parallel or for confirmation.
Permutations of three structural changes to finasteride were tested for their ability to abolish time-dependent inhibition. All compounds were tested at their apparent IC50 values at pH 5.5 and 37° C.
(§2) Following the procedures of Example 9, the compounds below were each tested with both human type 1 and type 2 enzyme.

The conditions of data set [2]: comparison with NADP-dihydrofinasteride adduct; cited from earlier work.
Data set [3] has as its target T2, human 5α-reductase (prostate, type 2) (Homo sapiens, UniProt P31213).
T2 construct: host or cells: native human prostate tissue or recombinant from a baculovirus expression system; considered interchangeable
T2 sequence (P31213 1-254): T1 sequence (P31213 1-254)
Description: Inhibition of 5α-reductase by free NADP-dihydrofinasteride adduct. The data set is classed as biochemical. Here is the method:
as §1

A short description of data set [4]: Partition of released polar component into chloroform. The class given is physicochemical. The note with it: released by denaturation in guanidine hydrochloride. The source says:
Eventually, it became evident that dihydrofinasteride is not the immediate product released upon denaturation of the enzyme-inhibitor complex. Several lines of evidence pointed to release of a much more polar [^3 H]-labeled component. Among these, it was disconcerting that recoveries of [^3 H]dihydrofinasteride on the reverse phase column were often only 35-45% of the radioactivity released from heat-denatured enzyme-inhibitor complex, the remainder never eluting (under acidic conditions). […] It is now clear that this polar intermediate accounts for most, or all, of the radioactivity released by any denaturation method, chromatographs anomalously, and is inadvertently converted to [^3 H]dihydrofinasteride during heat-denaturation.

Data set [5] can be described thus: Nonenzymatic decomposition / stability of NADP-dihydrofinasteride adduct. The data set is classed as physicochemical. The note with it: for degraded at 0.235 µM: 0.1m mops, pH 7.2, 235 nM, 0.1M MOPS; for ability to dissociate to [^14 C]-dihydrofinasteride after oxidation: phenazine methosulfate / pyrazine methosulfate. The protocol: The integrity of the NADP-[^14 C]dihydrofinasteride adduct, defined as its ability to form [^14 C]-dihydrofinasteride, was measured by high pressure liquid chromatography on a reverse phase column (VYDAC, 4.6×250 mm, 300 Å, 5 micron, flow rate=1 mL/min) in 60% aqueous methanol. The retention time was about 14 minutes, and was consistently 1.4 min longer than that for [^3 H]finasteride, as determined by co-injection. […] The halflife for decomposition was ~1 min in 0.1M ammonium formate buffer at pH 4.00 and 100° C., and these conditions gave 88% conversion to [^14 C]-dihydrofinasteride at infinite time.
All lines of evidence point to the covalent adduct of inhibitor and cofactor. (1) The absorbance and fluorescence spectra resemble those of NAD(P)H, the NAD-pyruvate complex and analogs and the NAD-cyanide addition complex described by Kaplan, et al. (2) On heating, the compound decomposes to (^14 C)dihydrofinasteride with a rate constant of ~6×10^-4 s^-1 and halflife of 20 min in water at neutral pH and 100° C., explaining the recovery of dihydrofinasteride in the heat-denaturation experiments above. […] (4) Securing the identification, the most prominent parent ion peak in its mass spectrum had the correct charge/mass ratio of 1116 Da.
The rate constant for nonenzymatic breakdown of the covalent intermediate to NADP^+ and dihydrofinasteride was determined under the same conditions used for the enzyme kinetic constants. See Example 5. A constant kx =7.21+0.27×10^-7 s^-1 and a halflife of 11.1±0.4 days at pH 7.2 and 37° C. was calculated. The formation of [^14 C]dihydrofinasteride went to 75% completion at infinite lime, presumably due to competing side reactions like oxidation of the dihydropyridine ring.
The decay of the isolated complex to NADP+ and [^14 C]dihydrofinasteride was measured as a function of time to determine the rate constant for nonenzymatic decomposition of NADP-dihydrofinasteride. The complex (235 nM) was incubated in 0.1M MOPS, 0.1% BSA, and 1 mM EDTA at pH 7.2 and 37° C., and fractions were taken each day and stored at -75° C. These were later analyzed by reverse phase chromatography as described for the assay using a neutral isocratic system of 60% methanol, where [^14 C]dihydrofinasteride has a retention time of 14 min. The y-axis is expressed relative to the total ^14 C-label in each sample injected (2,410 dpm). The reaction went to 0.753 completion at infinite time, as determined by heating at 100° C. The results, as determined by nonlinear regression are consistent with first-order decay with a rate constant kx =7.21+0.27×10^-7 s^-1 and 0.754±0.015 conversion at infinite time as determined by nonlinear regression.

The target in data set [6] is T3, human type 1 5α-reductase (Homo sapiens, UniProt P18405).
T3 construct: made in house
T3 sequence (P18405 1-259): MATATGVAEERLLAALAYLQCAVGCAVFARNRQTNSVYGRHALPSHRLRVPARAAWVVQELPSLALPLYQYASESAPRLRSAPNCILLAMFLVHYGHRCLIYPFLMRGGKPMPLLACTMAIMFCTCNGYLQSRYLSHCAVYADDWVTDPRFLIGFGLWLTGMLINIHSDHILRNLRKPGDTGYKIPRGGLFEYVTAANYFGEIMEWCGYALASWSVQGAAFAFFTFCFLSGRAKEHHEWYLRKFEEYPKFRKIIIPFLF
Briefly: Inhibition of human type 1 enzyme (Example 11). The class given is biochemical. The settings on record: for IC50 / kon: Table 2, human type 1. The protocol: Permutations of three structural changes to finasteride were tested for their ability to abolish time-dependent inhibition. All compounds were tested at their apparent IC50 values at pH 5.5 and 37° C. Those displaying slow-binding inhibition are identified by kon values, which were determined as described for finasteride above. Those for which no time-dependent inhibition was found are identified by apparent Ki values.
as §2

Where [7] appears, read: Table 1, pH 5.5, 37° C., no time-dependent inhibition, read-out: Ki (apparent).
Where [8] appears, read: Table 3, human type 2, read-out: kon.

Each structure is given as a SMILES string. Like-named read-outs stand apart in the source and are kept apart here. A value given as a limit tells only on which side of the number the result lay.

As for `COC(=O)[C@H]1CC[C@H]2[C@@H]3CC[C@H]4N(C)C(=O)C=C[C@]4(C)[C@H]3CC[C@]12C` [Compound 4], the Ki in data set [1] was found to be 960 nM.
As for `CN1C(=O)CC[C@]2(C)[C@H]3CC[C@]4(C)[C@@H](C(=O)NC5C6CC7CC(C6)CC5C7)CC[C@H]4[C@@H]3CC[C@@H]12` (some centres unmarked) [Compound 10], the Ki in data set [1] (setting [7]) amounted to 0.5 nM.
With `NC(=O)C1=CN([C@@H]2O[C@H](COP(=O)(O)OP(=O)(O)OC[C@H]3O[C@@H](n4cnc5c(N)ncnc54)[C@H](O)[C@@H]3O)[C@@H](O)[C@H]2O)C=CC1CC(=O)C(=O)O` (some centres unmarked) [NAD-pyruvate adduct], in data set [2], the “stability” value was “so unstable as to preclude normal kinetic measurements”.
As for `C[C@]12C=CC(=O)N[C@@H]1CC[C@@H]1[C@@H]2CC[C@]2(C)[C@@H](C(=O)NC3C4CC5CC(C4)CC3C5)CC[C@@H]12` (some centres unmarked) [Compound 9], the kon (commonly the rate constant with which the complex forms) in data set [1] (Table 1, pH 5.5, 37° C.) was 47.00 10^5 × M^-1 s^-1.
With `CC(C)(C)NC(=O)[C@H]1CC[C@H]2[C@@H]3CC[C@H]4NC(=O)C(C5C=CN([C@@H]6O[C@H](COP(=O)(O)OP(=O)(O)OC[C@H]7O[C@@H](n8cnc9c(N)ncnc98)[C@H](OP(=O)(O)O)[C@@H]7O)[C@@H](O)[C@H]6O)C=C5C(N)=O)C[C@]4(C)[C@H]3CC[C@]12C` (some centres unmarked) [NADP-dihydrofinasteride adduct], the “rate constant for release of adduct from competent enzyme” value in data set [3] (bounded by observed decay of enzyme-[^3 H]finasteride complex) is no more than 3e-07 s⁻¹. Further, the “rate constant for binding of adduct to free enzyme, k-3” value in data set [3] (extrapolated to zero pyridine-nucleotide cofactor) is reported as ~ 1×10^6 M^-1 s^-1. Further, the “mode of inhibition” value in data set [3] (versus NADPH and testosterone) was “competitive with the first substrate (NADPH) and independent of saturating concentrations of the second (testosterone)”. In addition, the “radioactivity partitioning into chloroform” value in data set [4] is on record as less than 5%. Moreover, the half-life in data set [5] (0.1M ammonium formate, pH 4.00, 100° C., read-out: halflife for decomposition) was roughly 1 min; in data set [5] (pH 7.2, 37° C., read-out: halflife of nonenzymatic breakdown (converted)) it was 16000 min; in data set [5] (water, neutral pH, 100° C., read-out: halflife of decomposition), 20 min. Also, the degraded in data set [5] (0.1m ammonium formate, pH 4, 0.1M ammonium formate, pH 4.00, 100° C., read-out: conversion to [^14 C]-dihydrofinasteride at infinite time) turned out to be 88%; in data set [5] (pH 7.2, pH 7.2, 37° C., read-out: completion of formation of [^14 C]dihydrofinasteride at infinite time) it was 75%. Moreover, the degraded at 0.235 µM in data set [5] (pH 7.2, 37° C., read-out: conversion at infinite time, by nonlinear regression) was found to be 75.4 ± 1.5%; in data set [5] (pH 7.2, read-out: completion at infinite time, by heating at 100° C.) it was 75.3%. Moreover, in data set [5] (ammonium bicarbonate buffer, pH 9, -75° C.), the “storage stability” value is “stable for months”. The “stability relative to NAD-pyruvate counterpart” value in data set [5] (oxidation and dissociation) is “more stable to oxidation, and certainly to dissociation,than its NAD-pyruvate counterpart”. For the same compound, the “rate constant kx for nonenzymatic breakdown to NADP^+ and dihydrofinasteride” value in data set [5] (pH 7.2, 37° C.) is reported as 7.21+0.27×10^-7 s^-1. In addition, the “ability to dissociate to [^14 C]-dihydrofinasteride after oxidation” value in data set [5] (listed as NADP-[^14 C]dihydrofinasteride adduct) was “completely abolished the ability to dissociate to [^14 C]-dihydrofinasteride”; in data set [5] (listed as covalent adduct of inhibitor and cofactor), “abolished by treatment with pyrazine methosulfate”. For the same compound, the “rate constant of decomposition” value in data set [5] (water, neutral pH, 100° C.) was ~ 6×10^-4 s^-1.
Take `C[C@]12C=CC(=O)N[C@@H]1CC[C@@H]1[C@@H]2CC[C@]2(C)[C@@H](C(=O)C3CCCCC3)CC[C@@H]12` [Compound 5]: in data set [1] (Table 1, pH 5.5, 37° C.), the kon is recorded as 28.00 10^5 × M^-1 s^-1.
For the compound `C[C@]12C=CC(=O)N[C@@H]1CC[C@@H]1[C@@H]2CC[C@]2(C)C(CC#N)CC[C@@H]12` (some centres unmarked) [Compound 13], the concentration for half-maximal inhibition (IC50) (commonly the concentration that inhibits the measured activity by half) in data set [1] (Table 3, human type 2) was 8400 nM. Moreover, the kon in data set [1] (setting [8]) came out at 140 M⁻¹ s⁻¹. In data set [6], the “selectivity for human 5α-reductase type 1” value was 1,200; the midpoint of inhibition, the IC50, lay at 3 nM; the kon was 180000 M⁻¹ s⁻¹.
The like results for `COC(C)C1CC[C@H]2[C@@H]3CC[C@H]4NC(=O)C=C[C@]4(C)[C@H]3CC[C@]12C` (some centres unmarked) [Compound 14] were, in that order, 5400 nM, 130 M⁻¹ s⁻¹, 1,600, 1.8 nM and 200000 M⁻¹ s⁻¹.
For `CN1C(=O)CC[C@]2(C)[C@H]3CC[C@]4(C)[C@@H](C(=O)C5CCCCC5)CC[C@H]4[C@@H]3CC[C@@H]12` [Compound 8], in data set [1] (setting [7]), the Ki stood at 0.2 nM.
On the same count and under the same terms, to `C[C@]12CCC(=O)N[C@@H]1CC[C@@H]1[C@@H]2CC[C@]2(C)[C@@H](C(=O)C3CCCCC3)CC[C@@H]12` [Compound 6] belongs 0.3 nM.
The compound `CC1C[C@H]2NC(=O)C=C[C@]2(C)[C@H]2CC[C@]3(C)CC(Oc4ccc(Cl)cc4)C[C@H]3[C@H]12` (some centres unmarked) [Compound 11] yielded an IC50 in data set [1] (Table 3, human type 2) greater than 10000 nM. Further, the kon in data set [1] (setting [8]) stood at 50 M⁻¹ s⁻¹. In data set [6], the “selectivity for human 5α-reductase type 1” value was 3,300, inhibition was half-maximal at 8 nM (IC50) and the kon turned out to be 170000 M⁻¹ s⁻¹.
For the compound `CN1C(=O)C=C[C@]2(C)[C@H]3CC[C@]4(C)[C@@H](C(=O)C5CCCCC5)CC[C@H]4[C@@H]3CC[C@@H]12` [Compound 7], the Ki in data set [1] (setting [7]) was found to be 13 nM.
For the compound `COC(=O)[C@H]1CC[C@H]2[C@@H]3CC[C@H]4NC(=O)C=C[C@]4(C)[C@H]3CC[C@]12C` [Compound 3], in data set [1] (Table 1, pH 5.5, 37° C.), the kon is listed as 0.85 10^5 × M^-1 s^-1.
On to `CC(C)(C)NC(=O)[C@H]1CC[C@H]2[C@@H]3CC[C@H]4NC(=O)CC[C@]4(C)[C@H]3CC[C@]12C` [Compound 2], for which the Ki in data set [1] (setting [7]) turned out to be 8 nM.
Regarding `C[C@]12C=CC(=O)N[C@@H]1CC[C@@H]1[C@@H]2CC[C@]2(C)C(CCC(=O)Nc3ccncc3)CC[C@@H]12` (some centres unmarked) [Compound 12], the concentration for half-maximal inhibition (IC50) in data set [1] (Table 3, human type 2) came out at 3500 nM. For the same compound, the kon in data set [1] (setting [8]) worked out at 140 M⁻¹ s⁻¹. Moreover, in data set [6], the “selectivity for human 5α-reductase type 1” value was 1,200, the IC50 was found to be 2.8 nM and the kon amounted to 170000 M⁻¹ s⁻¹.

The record behind these values is patent publication US5656613A, “Treatment of hyperandrogenic conditions” (Merck & Co., Inc., priority 1995, dated 1997).
